This is an account of results in patent US20240382597A1, “FORMULATIONS OF ANTI-INFLAMMATORY AGENTS COMPRISING MSM WITH ENHANCED SOLUBILITY IN WATER” (LIVIONEX, Inc., priority 2021, published 2024).

A short description of data set [1]: solubility in water of anti-inflammatory agents, alone and in formulations comprising MSM. The class given is physicochemical. The source says: The increases in solubility in water of certain representative anti-inflammatory agents in formulations comprising MSM (about 5.4% w/w; range between 0.1 wt. % to about 15 wt. %, typically around 5%) are as follows: […]

For data set [2] the following is noted: at 79° F.; cited from earlier work.
Where [3] appears, read: in formulations comprising MSM (about 5.4% w/w; range 0.1 wt. % to about 15 wt. %).
Setting [4] is: without MSM (starting value of the increase).

The structures appear in SMILES notation.

As to `C[C@@H]1C[C@H]2[C@@H]3CCC4=CC(=O)C=C[C@]4(C)[C@@]3(F)[C@@H](O)C[C@]2(C)[C@@]1(O)C(=O)CO` [Dexamethsone, dexamethasone], the figures for the solubility in water in data set [1] (setting [3]) and in data set [1] (setting [4]) were ~250 mg per ml of water and “insoluble”, respectively.
The like results for `O=C(O)Cc1ccccc1Nc1c(Cl)cccc1Cl` [Diclofenac, diclofenac] were, in that order, 50 mg per ml of water and 0.004 mg per ml of water.
The like results for `CC(C)Cc1ccc(C(C)C(=O)O)cc1` (stereo not drawn) [Ibuprofen, ibuprofen] were, in that order, ~150 mg per ml of water and “insoluble”.
As to `CS(C)(=O)=O` [MSM, methylsulfonylmethane], in data set [2], the water solubility is 34 % w/v.
`COC(=O)c1ccccc1O` [Methyl salicylate, methyl salicylate]: the figures for the solubility in water in data set [1] (setting [3]) and in data set [1] (setting [4]) were 0.013 mg per ml of water and 0.00065 mg per ml of water, respectively.
